Measured values as given in patent US4065575A, “3-Aminomethyl derivatives of 4-chromanone” (Joullie International, priority 1975, dated 1977).
“Also recorded” adds a separate entry of the source. Counter-ions that a name gives are not always drawn.

Assays:
[1] = Acute toxicity in mice (LD 50); format: in vivo; details: mouse, in vivo, mice, 15 days observation
Protocol: (§1) The study is carried out on batches of 5 Swiss female mice of the NMRI Han. strain. The products are administered either intravenously (into the caudal vein) in solution in a 9 g..permill. sodium chloride solution, or orally (probang) in suspension in a 10% solution of gum arabic.
(§2) The animals are observed for the 15 days following the administration of the products.
(§3) The LD 50 values are calculated by the method of Karber and Behrens (Arch. Exp. Pathol. Pharm. 177, 1935, page 379).

[2] = tested on: isolated duodenum of a rat; assay: Musculotropic spasmolytic action on the isolated duodenum of a rat (barium chloride contraction); details: in words
Protocol: The experiments are carried out in accordance with the method of Magnus R. (Arch. ges. Physiol. 1904, 102, 123) on the isolated duodenum of a rat, surviving in oxygenated Tyrode liquid and kept at 38° C. The tonus and the pendular movements of the duodenum were recorded by means of a strain gauge on an electronic polygraph.
The inherent action of the products, and the antagonism exerted against the musculotropic contraction-inducing action of barium chloride was examined. Papaverine is used as the reference substance.

[3] = tested on: isolated auricle of a rabbit; assay: Peripheral vasomotoricity, isolated and perfused auricle of a rabbit; details: for activation at 0.0001 mg / activation at 0.001 mg / activation at 0.01 mg / activation at 0.1 mg: Oryctolagus cuniculus, read-out: Maximum variations in the flow rate; for activation at 0.0001 mg: dose 0.1 μg.; for activation at 0.001 mg: dose 1 μg.; for activation at 0.01 mg: dose 10 μg.; for activation at 0.1 mg: dose 100 μg.
Protocol: The flow rate of the liquid issuing from the veins is recorded by electronic contact on a polygraph. The products to be studied are injected at increasing doses into the perfusion tube and their actions are compared to that of isoxsuprine used as the reference substance.
The results, collected in Table No. III, are expressed in the maximum percentage increase of the flow rate at the various doses used.

[4] = Cardiovascular action in dogs; format: in vivo, male Beagle dogs
Protocol: Male Beagle dogs weighing 9 to 12 kg. were anaesthetised by intrasaphenous injection of a 2% solution of chloralose in physiological solution, at a dose of 100 mg./kg.
The anaesthesia is maintained by slow perfusion of 5% pentobarbital (1.2 ml./hour).
The animals are tracheotomised and placed under assisted respiration by means of a Bird respirator. Their oxygenation and their acid-base equilibrium are controlled by determination of the pH, the pCO2 and the pO2 on blood samples taken from a collateral of the brachial artery (pH/gas analyser for blood, IL model 213/227).
The different parameters are recorded on a polygraph.

mice = assay: Acute toxicity in mice (LD 50); format: in vivo; details: intravenous; in words
Protocol: as §1, §2, §3

[5] = tested on: hypertensive effects of electrical stimulation, adrenaline and noradrenaline; assay: α-Sympatholytic effects in amyeliated rats; format: in vivo; details: for % variation of the hypertensive effects obtained with adrenaline: adrenaline 1.25 to 2.5 μg./kg.; for % variation of the hypertensive effects obtained with noradrenaline: noradrenaline 1.25 to 2.5 μg./kg.
Excerpt: The α-sympatholytic effects of LJ 1052 and LJ 1053 are compared with those of isoxsuprine in amyeliated rats which have been prepared by a method derived from those of Shipley and Tilden (Proc. soc. Exp. Biol. Med. 1947, 64, 453-455) and of Gillespie and Muir (Br. J. Pharmac. Chemother. 1967, 30, 78-87).
The effects on the blood pressure of electrical stimulation of the thoracolumbar sympathic nerve (rectangular signals = voltage 20 to 40 volts; width 2 m. sec; frequency 10 secs.; duration 5 to 10 secs.) and of injections of adrenaline (1.25 to 2.5 μg./kg.) and of noradrenaline (1.25 to 2.5 μg./kg.) are determined before and after injection of the products tested.

platelet aggregation = assay: Anti-platelet-aggregation in vitro; format: cell-based; details: in words
ADP platelet aggregation = assay: ADP aggregation test; format: cell-based; details: in words
[6] = dose 50 g./kg. (so in the source)
[7] = dose 100 g./kg. (so in the source)
[8] = dose 500 g./kg. (so in the source)
[9] = dose 2,500 g./kg. (so in the source)
[10] = 0.04 mg./kg. i.v. (1/1,000 LD 50)
[11] = 0.04 mg./kg. i.v. (1/1,000 LD 50), first or only phase

**Q.** With CCCCCNCC1COc2ccccc2C1=O (stereo not drawn) [LJ 1046, 3-(n-Pentylaminomethyl)-4-chromanone hydrochloride] as the compound, how does the LD50 at 360 h ([1]; intravenous administration) read?
**A.** 18 mg/kg

**Q.** And the LD50 at 360 h ([1]; oral administration)?
**A.** 237 mg/kg

**Q.** What about the “musculotropic spasmolytic action compared with papaverine / within the series” value [2] of the same compound?
**A.** the most active

**Q.** What about the activation at 0.0001 mg [3] of the same compound?
**A.** 38%

**Q.** What about the activation at 0.001 mg [3] of the same compound?
**A.** 29%

**Q.** And the activation at 0.01 mg [3]?
**A.** 61%

**Q.** What about the activation at 0.1 mg [3] of the same compound?
**A.** 77%

**Q.** What about the “maximum increases in the flow rate” value ([3]; all doses (0.1 to 100 μg.)) of the same compound?
**A.** ≤ 100%

**Q.** What about the “FF (mean flow rate of the femoral artery), maximum per cent variation” value ([4]; 0.36 mg./kg. i.v. (1/50 LD 50)) of the same compound?
**A.** +100%

**Q.** What about the “FF, duration of action” value ([4]; 0.36 mg./kg. i.v. (1/50 LD 50)) of the same compound?
**A.** > 20 min

**Q.** What about the “Hb (heart beat), maximum per cent variation” value ([4]; 0.36 mg./kg. i.v. (1/50 LD 50)) of the same compound?
**A.** +30%

**Q.** And the “Hb, duration of action” value ([4]; 0.36 mg./kg. i.v. (1/50 LD 50))?
**A.** > 20 min

**Q.** What about the “LVP (left ventricular pressure), maximum per cent variation” value ([4]; 0.36 mg./kg. i.v. (1/50 LD 50)) of the same compound?
**A.** -20%

**Q.** What about the “LVP, duration of action” value ([4]; 0.36 mg./kg. i.v. (1/50 LD 50)) of the same compound?
**A.** > 20 min

**Q.** What about the “Mean AP, duration of action” value ([4]; 0.36 mg./kg. i.v. (1/50 LD 50)) of the same compound?
**A.** > 20 min

**Q.** And the “Mean AP, maximum per cent variation” value ([4]; 0.36 mg./kg. i.v. (1/50 LD 50))?
**A.** -36%

**Q.** And the “dLVP/dt, duration of action” value ([4]; 0.36 mg./kg. i.v. (1/50 LD 50))?
**A.** > 20 min

**Q.** What about the “dLVP/dt, maximum per cent variation” value ([4]; 0.36 mg./kg. i.v. (1/50 LD 50)) of the same compound?
**A.** +43%

**Q.** Which LD50 at 360 h ([1]; intravenous administration) does the source give for COCCNCC1COc2ccccc2C1=O (stereo not drawn) [LJ 1052, 3-(2-Methoxyethylaminomethyl)-4-chromanone hydrochloride] here?
**A.** 47 mg/kg

**Q.** What about the LD50 at 360 h ([1]; oral administration) of the same compound?
**A.** 475 mg/kg

**Q.** And the “intravenous LD 50 in mice (comparison of three products)” value (mice)?
**A.** practically identical

**Q.** What about the activation at 0.0001 mg [3] of the same compound?
**A.** 79%

**Q.** And the activation at 0.001 mg [3]?
**A.** 77%

**Q.** And the activation at 0.01 mg [3]?
**A.** 100%

**Q.** What about the activation at 0.1 mg [3] of the same compound?
**A.** 150%

**Q.** What about the “duration of the effects / of the action” value ([3]; at the highest doses) of the same compound?
**A.** ≥ 30 min

**Q.** And the peripheral vasodilatory action ([3]; in words, hydrochloride)?
**A.** great; also recorded: as active as isoxsuprine; also recorded: great even at very low doses

**Q.** And the “% variation of the hypertensive effects obtained with electrical stimulation” value (shortened to “% variation … with electrical stimulation”) [5, 6]?
**A.** 0%

**Q.** What about the “% variation of the hypertensive effects obtained with adrenaline” value (“% variation … with adrenaline” for short) [5, 6] of the same compound?
**A.** -15%

**Q.** What about the “% variation of the hypertensive effects obtained with noradrenaline” value (“% variation … with noradrenaline” below) [5, 6] of the same compound?
**A.** -11%

**Q.** What about the “% variation … with electrical stimulation” value [5, 7] of the same compound?
**A.** 0%

**Q.** What about the “% variation … with adrenaline” value [5, 7] of the same compound?
**A.** -28%

**Q.** And the “% variation … with noradrenaline” value [5, 7]?
**A.** -12%

**Q.** And the “% variation … with electrical stimulation” value [5, 8]?
**A.** -20%

**Q.** And the “% variation … with adrenaline” value [5, 8]?
**A.** -77%

**Q.** And the “% variation … with noradrenaline” value [5, 8]?
**A.** -38%

**Q.** And the “% variation … with electrical stimulation” value [5, 9]?
**A.** -80%

**Q.** And the “% variation … with adrenaline” value [5, 9]?
**A.** -77%

**Q.** What about the “% variation … with noradrenaline” value [5, 9] of the same compound?
**A.** -50%

**Q.** What about the “α-sympatholytic effect, comparison” value ([5]; same doses, in words) of the same compound?
**A.** less α-sympatholytic than LJ 1053 and isoxsuprine

**Q.** What about the “Diastolic AP, duration of action” value [4, 10] of the same compound?
**A.** 2 min

**Q.** And the “Diastolic AP, maximum per cent variation” value [4, 10]?
**A.** -29%

**Q.** And the “FF, duration of action” value [4, 10]?
**A.** 30 min

**Q.** What about the “Hb (heart beat), maximum per cent variation” value [4, 10] of the same compound?
**A.** +14%

**Q.** And the “Hb, duration of action” value [4, 10]?
**A.** 25 min

**Q.** And the “LVP, duration of action” value [4, 10]?
**A.** 25 min

**Q.** And the “Mean AP, duration of action” value [4, 10]?
**A.** 2 min

**Q.** And the “Mean AP, maximum per cent variation” value [4, 10]?
**A.** -25%

**Q.** And the “Systolic AP, duration of action” value [4, 10]?
**A.** 30 min

**Q.** And the “Systolic AP, maximum per cent variation” value [4, 10]?
**A.** +13%

**Q.** And the “LVP (left ventricular pressure), maximum per cent variation” value [4, 11]?
**A.** +9%

**Q.** And the “dLVP/dt, maximum per cent variation” value [4, 11]?
**A.** +34%

**Q.** What about the “dLVP/dt, duration of action” value ([4]; 0.04 mg./kg. i.v. (1/1,000 LD 50), only phase) of the same compound?
**A.** 30 min

**Q.** What about the “cardiovascular action compared with isoxsuprine” value ([4]; in words) of the same compound?
**A.** comparable to or even greater than that of isoxsuprine

**Q.** What about the femoral flow rate ([4]; low doses, in words) of the same compound?
**A.** activity comparable to that of isoxsuprine

**Q.** What about the anti-platelet-aggregation properties (platelet aggregation) of the same compound?
**A.** marked anti-platelet-aggregation properties in vitro

**Q.** And the “anti-aggregation activity compared with adenosine” value (ADP platelet aggregation)?
**A.** almost as active as adenosine
